Measured values taken from patent US6682753B2, “Methods for promoting weight gain using GPE-related compounds” (NeuronZ Limited, priority 2001, dated 2004).

Experiments:
[1] = Body weight gain over 14 days in rats after unilateral fimbria-fornix lesion with daily intracerebroventricular infusion; format: in vivo, male Wistar rats; conditions: lesioned rats; daily icv infusion of 2 μL for 14 days: GPE 3 μg/day, IGF-I 20 μg/day, NGF 1 μg/day
Description: A group of male Wistar rats weighing 174-193 g (University of Auckland, Animal Resources Unit) were divided randomly into the following groups: “control”, “sham”, “vehicle”, “GPE”, “IGF-I”, and “NGF”, depending on the treatment each animal was to undergo. “Control” animals were weighed at the first and last time points and were not treated or handled at any other time. “Sham” animals underwent a sham surgery of anesthesia, incision through the scalp skin, drill hole through the skull, bone wax to seal the drill hole, and sutures for the skin incision. They were then handled daily in mock infusions to mimic handling of animals that received lesions and intracerebroventricular infusions.
“Vehicle”, “GPE”, “IGF-I”, and “NGF” animals were anaesthetized with 75 mg/Kg sodium pentobarbital and positioned in a stereotaxic apparatus (Kopf Instruments, USA), and underwent unilateral fimbria-fomix lesions to lesion septal cholinergic neurons and chronic cannula implantation into the left lateral cerebral ventricle. Fomix-fimbria lesions were performed by transecting the fimbria-fornix projection using a specialized retractable wire Scouten knife (Kopf Instruments) designed to minimize tissue damage except at the required lesion site. Anaesthetized animals received an incision through their scalp skin and a small drill hole was made in the skull at the stereotaxic coordinates anterior-posterior (AP) axis−1.0 mm from the bregma and medial-lateral (ML) axis+2.5 mm from midline (left side), from an atlas of the rat brain (Paxinos et al. (1986), “The rat brain in stereotaxic coordinates”, Academic Press, London). The knife was lowered into the brain through the drill hole to the coordinate+6.0 mm ventral to the skull on the dorsal-ventral (DV) axis. The knife blade was then extended 2.5 mm toward midline at an angle of 30° caudal to the bregma. The knife, with blade extended, was then raised 4.5 mm dorsally to axotomize the fimbria-fomix fibres. The blade was then retracted, the knife lowered 4.5 mm to its original coordinate, and the process was repeated. […]

[2] = Weight gain in human patient suffering from a head injury, central administration (Examples 2-4); format: in vivo; conditions: 14 days
Procedure: GPE in a dose of 10 μg/Kg/day is administered via lateral cerebroventricular injection into the brain of a human patient suffering from a head injury to promote weight gain to normal levels. Alternatively, a GPE analog is administered. Treatment is commenced as soon as possible after the head injury and then for 14 days thereafter.
A GPE analog in a dose of 20 μg/Kg/day is administered via focal injection into the lateral cerebral ventricle of a human patient suffering from a head injury to promote weight gain to normal levels. Alternatively, GPE is administered. Treatment is commenced as soon as possible after the head injury and then for 14 days thereafter.
GPE in a dose of 5 μg/Kg/day is administered via a surgically inserted shunt into the lateral cerebral ventricle of a human patient suffering from a head injury to promote weight gain to normal levels. Alternatively, a GPE analog is administered. Treatment is commenced as soon as possible after the head injury and then for 14 days thereafter.

[3] = administered into the brain following transient ischemia to the forebrain, adult rats; cited from earlier work
[4] = infused in the brain of adult rats after partial or full lesions (e.g. partial fimbria-fornix transection); cited from earlier work

Molecule	weight gain over the 14 days [1]	effect on body weight gain [4]	other results
NCC(=O)N1CCC[C@H]1C(=O)N[C@@H](CCC(=O)O)C(=O)O [GPE, glycyl-L-prolyl-L-glutamic acid]	the normally expected weight gain occurred	–	weight gain in patient ([2]; 5 μg/Kg/day via surgically inserted shunt into the lateral cerebral ventricle): Normal weight gain is promoted; weight gain in patient ([2]; 10 μg/Kg/day via lateral cerebroventricular injection): Normal weight gain is promoted; weight gain in patient ([2]; 20 μg/Kg/day via focal injection into the lateral cerebral ventricle): Normal weight gain is promoted
IGF-I: insulin-like growth factor I (IGF-I)	minimal weight gain	–	effect on body weight [3]: cause weight gain
NGF: Nerve growth factor (NGF)	no weight gain	either decrease normal body weight gain or cause weight loss	–
bFGF: basic fibroblast growth factor (bFGF)	–	either decrease normal body weight gain or cause weight loss	–
BDNF: brain-derived neurotrophic factor (BDNF) (protein, UniProt P23560 19-247, looked up) Neurotrophic factor BDNF …: APMKEANIRGQGGLAYPGVRTHGTLESVNGPKAGSRGLTSLADTFEHVIEELLDEDQKVRPNEENNKDADLYTSRVMLSSQVPLEPPLLFLLEEYKNYLDAANMSMRVRRHSDPARRGELSVCDSISEWVTAADKKTAVDMSGGTVTVLEKVPVSKGQLKQYFYETKCNPMGYTKEGCRGIDKRHWNSQCRTTQSYVRALTMDSKKRIGWRFIRIDTSCVCTLTIKRGR	–	either decrease normal body weight gain or cause weight loss	–
GDNF: glial-derived neurotrophic factor (GDNF) (protein, UniProt P39905 78-211, looked up) Glial cell line-derived …: SPDKQMAVLPRRERNRQAAAANPENSRGKGRRGQRGKNRGCVLTAIHLNVTDLGLGYETKEELIFRYCSGSCDAAETTYDKILKNLSRNRRLVSDKVGQACCRPIAFDDDLSFLDDNLVYHILRKHSAKRCGCI	–	either decrease normal body weight gain or cause weight loss	–
